Test results as given in ChEMBL document CHEMBL1201862, “PubChem BioAssay data set” (2004).
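Each compound was tested at five concentrations against cells in 96-well plates for 48 hours. The concentration for 50% growth inhibition is given as GI50.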 Calls of active or inactive are those of the source. Rule as the data show it: active = GI50 up to about 1.1 µM and inactive = higher.

Key:
Assay in all cases: DTP human tumour cell line panel, 48 h
HOP-62 = test system: HOP-62
SW-620 = test system: SW-620
SN12C = test system: SN12C
Hs-578T = test system: Hs-578T
LOX IMVI = test system: LOX IMVI
UACC-257 = test system: UACC-257
OVCAR-5 = test system: OVCAR-5
HL-60 = test system: HL-60
SK-MEL-2 = test system: SK-MEL-2
ACHN = test system: ACHN
RXF 393 = test system: RXF 393
K562 = test system: K562
Malme-3M = test system: Malme-3M
OVCAR-3 = test system: OVCAR-3
SK-OV-3 = test system: SK-OV-3
A549 = test system: A549
MDA-N = test system: MDA-N
HCT-116 = test system: HCT-116
RPMI-8226 = test system: RPMI-8226
A498 = test system: A498
SK-MEL-5 = test system: SK-MEL-5
EKVX = test system: EKVX
UO-31 = test system: UO-31
CCRF-CEM = test system: CCRF-CEM
UACC-62 = test system: UACC-62
IGROV-1 = test system: IGROV-1
NCI-H522 = test system: NCI-H522
SR = test system: SR
TK-10 = test system: TK-10
COLO 205 = test system: COLO 205
SNB-75 = test system: SNB-75
786-0 = test system: 786-0
M14 = test system: M14
NCI-H226 = test system: NCI-H226
NCI/ADR-RES = test system: NCI/ADR-RES
HOP-92 = test system: HOP-92
DU-145 = test system: DU-145
U-251 = test system: U-251
SK-MEL-28 = test system: SK-MEL-28
BT-549 = test system: BT-549
HCT-15 = test system: HCT-15
OVCAR-4 = test system: OVCAR-4
MOLT-4 = test system: MOLT-4
SNB-19 = test system: SNB-19
T47D = test system: T47D
SF-268 = test system: SF-268
MDA-MB-435 = test system: MDA-MB-435
PC-3 = test system: PC-3
HCC 2998 = test system: HCC 2998
SF-295 = test system: SF-295
HT-29 = test system: HT-29
NCI-H460 = test system: NCI-H460
SF-539 = test system: SF-539
KM12 = test system: KM12
OVCAR-8 = test system: OVCAR-8
NCI-H23 = test system: NCI-H23
CAKI-1 = test system: CAKI-1
MCF7 = test system: MCF7
MDA-MB-231 = test system: MDA-MB-231

SMILES: N#Cc1c(N2CCCC2)ncn(Cc2ccccc2)c1=O
- GI50 (HOP-62): > 100 µM (inactive)
- GI50 (SW-620): > 100 µM (inactive)
- GI50 (SN12C): > 100 µM (inactive)
- GI50 (Hs-578T): > 100 µM (inactive)
- GI50 (LOX IMVI): > 100 µM (inactive)
- GI50 (UACC-257): > 100 µM (inactive)
- GI50 (OVCAR-5): > 100 µM (inactive)
- GI50 (HL-60): > 100 µM (inactive)
- GI50 (SK-MEL-2): > 100 µM (inactive)
- GI50 (ACHN): > 100 µM (inactive)
- GI50 (RXF 393): > 100 µM (inactive)
- GI50 (K562): > 100 µM (inactive)
- GI50 (Malme-3M): > 100 µM (inactive)
- GI50 (OVCAR-3): > 100 µM (inactive)
- GI50 (SK-OV-3): > 100 µM (inactive)
- GI50 (A549): > 100 µM (inactive)
- GI50 (MDA-N): > 100 µM (inactive)
- GI50 (HCT-116): > 100 µM (inactive)
- GI50 (RPMI-8226): > 100 µM (inactive)
- GI50 (A498): > 100 µM (inactive)
- GI50 (SK-MEL-5): > 100 µM (inactive)
- GI50 (EKVX): > 100 µM (inactive)
- GI50 (UO-31): > 100 µM (inactive)
- GI50 (CCRF-CEM): > 100 µM (inactive)
- GI50 (UACC-62): > 100 µM (inactive)
- GI50 (IGROV-1): > 100 µM (inactive)
- GI50 (NCI-H522): > 100 µM (inactive)
- GI50 (SR): > 100 µM (inactive)
- GI50 (TK-10): > 100 µM (inactive)
- GI50 (COLO 205): > 100 µM (inactive)
- GI50 (SNB-75): > 100 µM (inactive)
- GI50 (786-0): > 100 µM (inactive)
- GI50 (M14): > 100 µM (inactive)
- GI50 (NCI-H226): > 100 µM (inactive)
- GI50 (NCI/ADR-RES): > 100 µM (inactive)
- GI50 (HOP-92): > 100 µM (inactive)
- GI50 (DU-145): > 100 µM (inactive)
- GI50 (U-251): > 100 µM (inactive)
- GI50 (SK-MEL-28): > 100 µM (inactive)
- GI50 (BT-549): > 100 µM (inactive)
- GI50 (HCT-15): > 100 µM
- GI50 (OVCAR-4): > 100 µM (inactive)
- GI50 (MOLT-4): > 100 µM (inactive)
- GI50 (SNB-19): > 100 µM (inactive)
- GI50 (T47D): > 100 µM (inactive)
- GI50 (SF-268): > 100 µM (inactive)
- GI50 (MDA-MB-435): > 100 µM (inactive)
- GI50 (PC-3): > 100 µM (inactive)
- GI50 (HCC 2998): > 100 µM (inactive)
- GI50 (SF-295): > 100 µM (inactive)
- GI50 (HT-29): > 100 µM (inactive)
- GI50 (NCI-H460): > 100 µM (inactive)
- GI50 (SF-539): > 100 µM (inactive)
- GI50 (KM12): > 100 µM (inactive)
- GI50 (OVCAR-8): > 100 µM (inactive)

SMILES: CCN(CC)C(=O)N1CN(c2ccccc2)C2(CCN(CCCSc3ccc(F)cc3)CC2)C1=O
- GI50 (SW-620): 6.75 µM (inactive)
- GI50 (SN12C): 9.18 µM (inactive)
- GI50 (Hs-578T): 2.79 µM (inactive)
- GI50 (LOX IMVI): 2.84 µM (inactive)
- GI50 (UACC-257): 3.32 µM (inactive)
- GI50 (OVCAR-5): 14.3 µM (inactive)
- GI50 (HL-60): 5.37 µM (inactive)
- GI50 (SK-MEL-2): 7.16 µM (inactive)
- GI50 (ACHN): 3.01 µM (inactive)
- GI50 (RXF 393): 16.2 µM (inactive)
- GI50 (K562): 8.32 µM (inactive)
- GI50 (Malme-3M): 15.9 µM (inactive)
- GI50 (OVCAR-3): 5.13 µM (inactive)
- GI50 (SK-OV-3): 19 µM (inactive)
- GI50 (A549): 18.8 µM (inactive)
- GI50 (MDA-N): 6.15 µM (inactive)
- GI50 (HCT-116): 2.58 µM (inactive)
- GI50 (RPMI-8226): 5.81 µM (inactive)
- GI50 (NCI-H23): 7.83 µM (inactive)
- GI50 (SK-MEL-5): 3.66 µM (inactive)
- GI50 (EKVX): 3.93 µM (inactive)
- GI50 (UO-31): 7.19 µM (inactive)
- GI50 (CCRF-CEM): 4.2 µM (inactive)
- GI50 (UACC-62): > 10 µM (inactive)
- GI50 (NCI-H522): 13.2 µM (inactive)
- GI50 (SR): 3.8 µM (inactive)
- GI50 (TK-10): 10.3 µM (inactive)
- GI50 (COLO 205): 1.92 µM (inactive)
- GI50 (SNB-75): 20.6 µM (inactive)
- GI50 (786-0): 12.8 µM (inactive)
- GI50 (M14): 3.56 µM (inactive)
- GI50 (NCI-H226): 18.9 µM (inactive)
- GI50 (NCI/ADR-RES): 21.2 µM (inactive)
- GI50 (DU-145): 5.14 µM (inactive)
- GI50 (U-251): 11.9 µM (inactive)
- GI50 (SK-MEL-28): 18.4 µM (inactive)
- GI50 (BT-549): 13.5 µM (inactive)
- GI50 (HCT-15): 11 µM
- GI50 (OVCAR-4): 6.75 µM (inactive)
- GI50 (MOLT-4): 3.25 µM (inactive)
- GI50 (CAKI-1): 87.7 µM (inactive)
- GI50 (SNB-19): 9.79 µM (inactive)
- GI50 (T47D): 4.01 µM (inactive)
- GI50 (SF-268): 11.1 µM (inactive)
- GI50 (MDA-MB-435): 12.8 µM (inactive)
- GI50 (MCF7): 4.19 µM (inactive)
- GI50 (PC-3): 6.56 µM (inactive)
- GI50 (SF-295): 12.1 µM (inactive)
- GI50 (HT-29): 2.85 µM (inactive)
- GI50 (SF-539): 8.34 µM (inactive)
- GI50 (KM12): 10.2 µM (inactive)
- GI50 (OVCAR-8): 15.1 µM (inactive)

SMILES: O=S(=O)(c1ccccc1)C(c1ccc2ccccc2n1)S(=O)(=O)c1ccccc1
- GI50 (HOP-62): 78 µM (inactive)
- GI50 (SW-620): > 100 µM (inactive)
- GI50 (SN12C): > 100 µM (inactive)
- GI50 (Hs-578T): > 100 µM (inactive)
- GI50 (LOX IMVI): > 100 µM (inactive)
- GI50 (UACC-257): > 100 µM (inactive)
- GI50 (OVCAR-5): > 100 µM (inactive)
- GI50 (HL-60): > 100 µM (inactive)
- GI50 (ACHN): > 100 µM (inactive)
- GI50 (RXF 393): > 100 µM (inactive)
- GI50 (K562): > 100 µM (inactive)
- GI50 (Malme-3M): > 100 µM (inactive)
- GI50 (OVCAR-3): > 100 µM (inactive)
- GI50 (A549): > 100 µM (inactive)
- GI50 (MDA-N): > 100 µM (inactive)
- GI50 (HCT-116): > 100 µM (inactive)
- GI50 (RPMI-8226): > 100 µM (inactive)
- GI50 (A498): > 100 µM (inactive)
- GI50 (NCI-H23): > 100 µM (inactive)
- GI50 (SK-MEL-5): > 100 µM (inactive)
- GI50 (EKVX): > 100 µM (inactive)
- GI50 (UO-31): > 100 µM (inactive)
- GI50 (IGROV-1): > 100 µM (inactive)
- GI50 (MDA-MB-231): > 100 µM (inactive)
- GI50 (NCI-H522): 90.2 µM (inactive)
- GI50 (SR): > 100 µM (inactive)
- GI50 (TK-10): > 100 µM (inactive)
- GI50 (COLO 205): > 100 µM (inactive)
- GI50 (SNB-75): > 100 µM (inactive)
- GI50 (786-0): > 100 µM (inactive)
- GI50 (NCI-H226): > 100 µM (inactive)
- GI50 (NCI/ADR-RES): > 100 µM (inactive)
- GI50 (HOP-92): > 100 µM (inactive)
- GI50 (DU-145): > 100 µM (inactive)
- GI50 (U-251): > 100 µM (inactive)
- GI50 (SK-MEL-28): > 100 µM (inactive)
- GI50 (BT-549): > 100 µM (inactive)
- GI50 (HCT-15): > 100 µM
- GI50 (OVCAR-4): 55.6 µM (inactive)
- GI50 (MOLT-4): > 100 µM (inactive)
- GI50 (CAKI-1): > 100 µM (inactive)
- GI50 (SNB-19): > 100 µM (inactive)
- GI50 (SF-268): > 100 µM (inactive)
- GI50 (MDA-MB-435): > 10 µM (inactive)
- GI50 (MCF7): > 100 µM (inactive)
- GI50 (PC-3): > 100 µM (inactive)
- GI50 (HCC 2998): 48.5 µM (inactive)
- GI50 (SF-295): > 100 µM (inactive)
- GI50 (HT-29): > 100 µM (inactive)
- GI50 (NCI-H460): > 100 µM (inactive)
- GI50 (SF-539): > 100 µM (inactive)
- GI50 (KM12): > 100 µM (inactive)
- GI50 (OVCAR-8): > 100 µM (inactive)
